Assays:
Human RSK2 = Human RSK2 (Homo sapiens (Human), UniProt P51812); assay: Human RSK2 assay (Kinase Glo Plus, residual ATP); assay type: biochemical;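 note: recombinant human RSK2 phosphorylating a substrate peptide, 90 min at 28 °C, leftover ATP read by luminescence, RLU scaled between no-kinase background and uninhibited kinase controls, 4-parameter fit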
NHE1 = conditions: cited from earlier work

Sequence of Human RSK2 (P51812 whole entry): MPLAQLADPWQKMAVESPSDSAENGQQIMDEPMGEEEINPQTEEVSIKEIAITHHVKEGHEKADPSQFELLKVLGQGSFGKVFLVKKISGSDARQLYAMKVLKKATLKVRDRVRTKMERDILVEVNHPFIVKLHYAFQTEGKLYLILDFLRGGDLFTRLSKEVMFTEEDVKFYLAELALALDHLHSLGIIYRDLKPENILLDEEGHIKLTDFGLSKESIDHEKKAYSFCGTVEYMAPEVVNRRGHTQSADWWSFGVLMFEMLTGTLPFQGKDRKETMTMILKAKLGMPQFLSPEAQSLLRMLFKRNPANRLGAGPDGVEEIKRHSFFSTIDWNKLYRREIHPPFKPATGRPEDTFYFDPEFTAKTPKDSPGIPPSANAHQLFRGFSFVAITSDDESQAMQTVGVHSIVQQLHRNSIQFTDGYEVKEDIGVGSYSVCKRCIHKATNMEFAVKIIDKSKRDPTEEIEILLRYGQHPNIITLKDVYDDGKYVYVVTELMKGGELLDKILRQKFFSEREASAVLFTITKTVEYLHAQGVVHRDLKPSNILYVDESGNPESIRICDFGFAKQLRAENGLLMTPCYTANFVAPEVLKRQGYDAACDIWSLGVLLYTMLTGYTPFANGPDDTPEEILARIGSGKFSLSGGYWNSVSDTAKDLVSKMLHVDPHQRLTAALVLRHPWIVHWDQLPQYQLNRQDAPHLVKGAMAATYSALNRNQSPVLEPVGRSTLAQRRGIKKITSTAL

O=C(Nc1cc[nH]n1)c1ccc2cc3n(c2c1)CCCNC3=O [Example 220, 1-oxo-N-(1H-pyrazol-3-yl)-2,3,4,5-tetrahydro-1H-[1,4]diazepino[1,2-a]indole-8-carboxamide]
IC50 (Human RSK2): 93 nM

CC1(C)CNC(=O)c2cc3ccc(C(=O)Nc4ccccc4C(N)=O)cc3n21 [Example 221, N-(2-carbamoylphenyl)-4,4-dimethyl-1-oxo-1,2,3,4-tetrahydropyrazino[1,2-a]indole-7-carboxamide]
IC50 (Human RSK2): 8.2 nM

CC1CCNC(=O)c2cc3ccc(C(=O)Nc4ccccc4C(N)=O)cc3n21 (stereo not drawn) [Example 222, N-(2-carbamoylphenyl)-5-methyl-1-oxo-2,3,4,5-tetrahydro-1H-[1,4]diazepino[1,2-a]indole-8-carboxamide]
IC50 (Human RSK2): 11 nM

Cc1cc(NC(=O)c2ccc3cc4n(c3c2)[C@H](C)CCNC4=O)no1 [Example 225, (5R)-5-methyl-N-(5-methyl-1,2-oxazol-3-yl)-1-oxo-2,3,4,5-tetrahydro-1H-[1,4]diazepino[1,2-a]indole-8-carboxamide]
IC50 (Human RSK2): 12 nM

O=C(Nc1cccc(-c2c[nH]cn2)c1)c1ccc2cc3n(c2c1)CCCNC3=O [Example 226, N-[3-(1H-imidazol-4-yl)phenyl]-1-oxo-2,3,4,5-tetrahydro-1H-[1,4]diazepino[1,2-a]indole-8-carboxamide]
IC50 (Human RSK2): 52 nM

O=C(Nc1cccc(-c2cc[nH]n2)c1)c1ccc2cc3n(c2c1)CCCNC3=O [Example 227, 1-oxo-N-[3-(1H-pyrazol-3-yl)phenyl]-2,3,4,5-tetrahydro-1H-[1,4]diazepino[1,2-a]indole-8-carboxamide]
IC50 (Human RSK2): 41 nM

Cc1ccc(-c2cccc(NC(=O)c3ccc4cc5n(c4c3)CCCNC5=O)c2)s1 [Example 228, N-[3-(5-methylthiophen-2-yl)phenyl]-1-oxo-2,3,4,5-tetrahydro-1H-[1,4]diazepino[1,2-a]indole-8-carboxamide]
IC50 (Human RSK2): 4100 nM

CNC(=O)c1ccccc1NC(=O)c1ccc2cc3n(c2c1)CCCNC3=O [Example 229, N-[2-(methylcarbamoyl)phenyl]-1-oxo-2,3,4,5-tetrahydro-1H-[1,4]diazepino[1,2-a]indole-8-carboxamide]
IC50 (Human RSK2): 154 nM

CN(C)CCNC(=O)c1ccccc1NC(=O)c1ccc2cc3n(c2c1)CCCNC3=O [Example 230, N-(2-{[2-(dimethylamino)ethyl]carbamoyl}phenyl)-1-oxo-2,3,4,5-tetrahydro-1H-[1,4]diazepino[1,2-a]indole-8-carboxamide]
IC50 (Human RSK2): 125 nM

Cn1cc(NC(=O)c2ccc3cc4n(c3c2)C(C)(C)CNC4=O)nc1C(=O)NC(C)(C)C [Example 231, N-[2-(tert-butylcarbamoyl)-1-methyl-1H-imidazol-4-yl]-4,4-dimethyl-1-oxo-1,2,3,4-tetrahydropyrazino[1,2-a]indole-7-carboxamide]
IC50 (Human RSK2): 6 nM

Cn1cc(NC(=O)c2ccc3cc4n(c3c2)CCCNC4=O)nc1C(=O)NC1CCCC1 [Example 232, N-[2-(cyclopentylcarbamoyl)-1-methyl-1H-imidazol-4-yl]-1-oxo-2,3,4,5-tetrahydro-1H-[1,4]diazepino[1,2-a]indole-8-carboxamide]
IC50 (Human RSK2): 9 nM

Cn1cc(NC(=O)c2ccc3cc4n(c3c2)C(C)(C)CNC4=O)nc1C(=O)NC1CCCC1 [Example 233, N-[2-(cyclopentylcarbamoyl)-1-methyl-1H-imidazol-4-yl]-4,4-dimethyl-1-oxo-1,2,3,4-tetrahydropyrazino[1,2-a]indole-7-carboxamide]
IC50 (Human RSK2): 3.7 nM

CC1CCNC(=O)c2cc3ccc(C(=O)Nc4cn(C)c(C(=O)NC5CCCC5)n4)cc3n21 (stereo not drawn) [Example 234, N-[2-(cyclopentylcarbamoyl)-1-methyl-1H-imidazol-4-yl]-5-methyl-1-oxo-2,3,4,5-tetrahydro-1H-[1,4]diazepino[1,2-a]indole-8-carboxamide]
IC50 (Human RSK2): 2.1 nM

CCCNC(=O)c1nc(NC(=O)c2ccc3cc4n(c3c2)C(C)CNC4=O)sc1C(C)C (stereo not drawn) [Example 235, 4-methyl-1-oxo-N-[5-(propan-2-yl)-4-(propylcarbamoyl)-1,3-thiazol-2-yl]-1,2,3,4-tetrahydropyrazino[1,2-a]indole-7-carboxamide]
IC50 (Human RSK2): 10.9 nM

CN(C)CCCn1c(NC(=O)c2ccc3cc4n(c3c2)CC2(CCNCC2)CNC4=O)nc2ccccc21 [Example 236, N-{1-[3-(dimethylamino)propyl]-1H-benzimidazol-2-yl}-1-oxo-2,3-dihydro-1H-spiro[1,4-diazepino[1,2-a]indole-4,4′-piperidine]-8-carboxamide]
IC50 (Human RSK2): 540 nM

Cc1cc(NC(=O)c2ccc3cc4n(c3c2)CC2(CCNCC2)CNC4=O)no1 [Example 237, N-(5-methyl-1,2-oxazol-3-yl)-1-oxo-2,3-dihydro-1H-spiro[1,4-diazepino[1,2-a]indole-4,4′-piperidine]-8-carboxamide]
IC50 (Human RSK2): 6300 nM

O=C(Nc1cnn(Cc2ccccc2)c1)c1ccc2cc3n(c2c1)CC1(CCNCC1)CNC3=O [Example 238, N-(1-benzyl-1H-pyrazol-4-yl)-1-oxo-2,3-dihydro-1H-spiro[1,4-diazepino[1,2-a]indole-4,4′-piperidine]-8-carboxamide]
IC50 (Human RSK2): 350 nM

CS(=O)(=O)c1ccc2c(c1)nc(NC(=O)c1ccc3cc4n(c3c1)CC1(CCNCC1)CNC4=O)n2CC(F)(F)F [Example 239, N-[5-(methylsulfonyl)-1-(2,2,2-trifluoroethyl)-1H-benzimidazol-2-yl]-1-oxo-2,3-dihydro-1H-spiro[1,4-diazepino[1,2-a]indole-4,4′-piperidine]-8-carboxamide]
IC50 (Human RSK2): 51 nM

Cc1ccc(-c2c(C(=O)CF)n(CCCO)c3ncnc(N)c23)cc1 [fmk]
basal NHE1 activity (NHE1; basal): without affecting basal activity
phosphorylation of NHE1 (NHE1): inhibit
phenylephrine-induced enhanced NHE1 activity (NHE1; phenylephrine-induced): inhibit

Source: patent US9150577B2, “Heterocyclic compounds containing an indole core” (Boehringer Ingelheim International GmbH, priority 2009, dated 2015)
